Key:
Type in all cases: biochemical
[1] = molecular target: T1, Recombinant human calpain I (Homo sapiens, UniProt P07384); test: Inhibition of calpain I (Succ-Leu-Tyr-MNA hydrolysis); conditions: for inhibition at 10 µM: values in parentheses, at 10,000 nM; for Calpain I IC50 ** (value in parentheses: % inhibition): ** explained as 10,000 nM only in footnotes to Tables 2-4
T1 construct: made in house
T1 sequence (P07384 1-714): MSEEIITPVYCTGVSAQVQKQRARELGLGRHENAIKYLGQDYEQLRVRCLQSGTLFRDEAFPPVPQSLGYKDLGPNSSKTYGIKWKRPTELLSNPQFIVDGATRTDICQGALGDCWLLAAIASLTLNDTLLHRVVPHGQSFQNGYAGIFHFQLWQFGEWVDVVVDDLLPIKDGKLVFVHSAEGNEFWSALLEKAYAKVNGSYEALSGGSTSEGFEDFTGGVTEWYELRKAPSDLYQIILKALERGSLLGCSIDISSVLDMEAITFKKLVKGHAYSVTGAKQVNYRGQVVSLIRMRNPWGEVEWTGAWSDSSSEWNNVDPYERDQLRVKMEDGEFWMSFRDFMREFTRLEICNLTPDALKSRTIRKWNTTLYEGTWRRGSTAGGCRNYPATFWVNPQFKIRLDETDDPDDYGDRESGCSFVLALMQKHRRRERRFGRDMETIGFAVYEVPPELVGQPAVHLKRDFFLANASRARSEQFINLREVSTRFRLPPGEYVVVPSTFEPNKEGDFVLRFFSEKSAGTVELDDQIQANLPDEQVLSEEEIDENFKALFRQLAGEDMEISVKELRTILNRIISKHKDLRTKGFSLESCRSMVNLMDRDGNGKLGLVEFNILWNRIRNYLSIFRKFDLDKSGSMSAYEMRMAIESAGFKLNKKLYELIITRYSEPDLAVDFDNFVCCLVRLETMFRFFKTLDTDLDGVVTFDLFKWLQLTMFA
Method: (§1) To evaluate inhibitory activity, stock solutions (40 times concentrated) of each compound to be tested were prepared in 100% anhydrous DMSO and 5 μl of each inhibitor preparation was aliquoted into each of three wells of a 96-well plate. Recombinant human calpain I, prepared by the method of Meyer et al. (Biochem. J. 1996, 314: 511-519), was diluted into assay buffer (i.e., 50 mM Tris, 50 mM NaCl, 1 mM EDTA, 1 mM EGTA, and 5 mM β-mercaptoethanol, pH 7.5, including 0.2 mM Succ-Leu-Tyr-MNA), and 175 μl was aliquoted into the same wells containing the independent inhibitor stocks as well as to positive control wells containing 5 μl DMSO, but no compound. To start the reaction, 20 μl of 50 mM CaCl2 in assay buffer was added to all wells of the plate, excepting three, which were used as background signal baseline controls. Substrate hydrolysis was monitored every 5 minutes for a total of 30 minutes. Substrate hydrolysis in the absence of inhibitor was linear for up to 15 minutes.
(§2) Inhibition of calpain I activity was calculated as the percent decrease in the rate of substrate hydrolysis in the presence of inhibitor relative to the rate in its absence. Comparison between the inhibited and control rates was made within the linear range for substrate hydrolysis. The IC50 S of inhibitors (concentration yielding 50% inhibition) were determined from the percent decrease in rates of substrate hydrolysis in the presence of five to seven different concentrations of the test compound. The results were plotted as percent inhibition versus log inhibitor concentration, and the IC50 was calculated by fitting the data to the four-parameter logistic equation shown below using the program GraphPad Prism (GraphPad Software, Inc., San Diego, Calif.).
The parameters a, b, c, and d are defined as follows: a is % inhibition in the absence of inhibitor, b is the slope, c is the IC50, and d is the % inhibition at an infinite concentration of inhibitor.

α-chymotrypsin = molecular target: T2, α-chymotrypsin (Bos taurus, UniProt P00766); test: Inhibition of serine protease α-chymotrypsin (Succ-Ala-Ala-Pro-Phe-AMC hydrolysis); conditions: Table 6; pH 7.5
T2 construct: purchased Sigma Chem. Co. C-3142
Method: as §1, §2
Additionally, because α-chymotrypsin is not a calcium sensitive enzyme and is constitutively active, following addition of inhibitor stocks to the 96 well plates, 100 μl of a 2-fold concentrated stock of enzyme in dilution buffer was first added and the reaction was started by addition of 100 μl of a 2-fold concentrated stock of substrate in assay buffer. Substrate hydrolysis was monitored every 5 minutes up to 30 minutes using a Fluoroskan II (ex=390 nm em=460 nm).

cathepsin B = molecular target: T3, cathepsin B (Homo sapiens, UniProt P07858); test: Inhibition of cathepsin B (Cbz-Phe-Arg-AMC hydrolysis); conditions: Table 6; pH 6.0; read-out: Cath. B IC50
T3 construct: purchased Calbiochem 219364
Method: as §1, §2
Additionally, the order of reagents added to the plate was altered because the enzyme is consitutively active. Following inhibitor addition to the plates, appropriate 2× concentrated stock dilutions of the enzyme preparations were made in assay buffer and 100 μl added to each well. The assay was initiated by addition of 100 μl of 2× concentrated stock dilution of substrate in assay buffer. Substrate hydrolysis was monitored using a Fluoriskan II (ex=390 nm; em=460 nm).

| IC50 ([1]; Tables 2-4, pH 7.5) | inhibition at 10 µM ([1]; Tables 2-4) | Structure (SMILES) | also measured |
| --- | --- | --- | --- |
| 71 nM |  | O=C(NCCNS(=O)(=O)c1ccc(-c2ccccn2)s1)C(=O)C(Cc1ccccc1)NC(=O)c1cc(C2CC2)nc2ccccc12 (centres unmarked) [Example 145] |  |
|  | 84% | O=C(NCCCn1ccnc1)C(=O)C(Cc1ccccc1)NC(=O)c1cc(C#Cc2ccccc2)nc2ccccc12 (centres unmarked) [Example 50] |  |
|  | 97% | COC(=O)C(CCCCNC(=O)C(=O)C(Cc1ccccc1)NC(=O)c1cc(C#Cc2ccccc2)nc2ccccc12)NC(=O)OC(C)(C)C (centres unmarked) [Example 106] |  |
| 16 nM |  | O=C(NCCNS(=O)(=O)c1ccccc1)C(=O)C(Cc1ccccc1)NC(=O)c1cc(CCc2ccccc2)nc2ccccc12 (centres unmarked) [Example 137] |  |
|  | 88% | O=C(NCCNS(=O)(=O)c1cccc([N+](=O)[O-])c1)C(=O)C(Cc1ccccc1)NC(=O)c1cc(C#Cc2ccccc2)nc2ccccc12 (centres unmarked) [Example 78] |  |
|  |  | CCCC(NC(=O)c1cc(Cl)nc2ccccc12)C(=O)C(=O)NCCNS(=O)(=O)c1ccc([N+](=O)[O-])cc1 (centres unmarked) [Example 150] | Calpain I IC50 ** (value in parentheses: % inhibition) ([1]; Table 5): 78% |
|  | 98% | O=C(NCC(F)(F)F)C(=O)C(Cc1ccccc1)NC(=O)c1cc(C#Cc2ccccc2)nc2ccccc12 (centres unmarked) [Example 2] |  |
|  | 95% | COCCNC(=O)C(=O)C(CC(C)C)NC(=O)c1cc(C#Cc2ccccc2)nc2ccccc12 (centres unmarked) [Example 112] |  |
|  | 42% | CC(C)(C)OC(=O)N=C(NCCCCC(CO)NC(=O)C(=O)C(Cc1ccccc1)NC(=O)c1cc(C#Cc2ccccc2)nc2ccccc12)NC(=O)OC(C)(C)C (centres unmarked) [Example 25] |  |
|  | 91% | C#CCNC(=O)C(=O)C(Cc1ccccc1)NC(=O)c1cc(C#Cc2ccccc2)nc2ccccc12 (centres unmarked) [Example 1] |  |
|  | 95% | O=C(NCc1cccc([N+](=O)[O-])c1)C(=O)C(Cc1ccccc1)NC(=O)c1cc(C#Cc2ccccc2)nc2ccccc12 (centres unmarked) [Example 40] |  |
| 67 nM |  | O=C(NCCNC(=O)C(=O)C(Cc1ccccc1)NC(=O)c1cc(C#Cc2ccccc2)nc2ccccc12)Nc1ccccc1 (centres unmarked) [Example 64] |  |
| 43 nM |  | O=C(NCCNS(=O)(=O)c1ccccc1)C(=O)C(Cc1ccccc1)NC(=O)c1cc(C#Cc2ccccc2)nc2ccccc12 (centres unmarked) [Example 95] |  |
| 87 nM |  | O=C(NCCNS(=O)(=O)c1cccnc1)C(=O)C(Cc1ccccc1)NC(=O)c1cc(Cl)nc2ccccc12 (single isomer, unassigned) [Example 141] |  |
| 424 nM |  | O=C(NCCCN1CCOCC1)C(=O)C(Cc1ccccc1)NC(=O)c1cc(C#Cc2ccccc2)nc2ccccc12 (centres unmarked) [Example 51] |  |
| 630 nM |  | O=C(NCCOCCO)C(=O)C(Cc1ccccc1)NC(=O)c1cc(C#Cc2ccccc2)nc2ccccc12 (centres unmarked) [Example 10] |  |
| 110 nM |  | COC(CNC(=O)C(=O)C(Cc1ccccc1)NC(=O)c1cc(C#Cc2ccccc2)nc2ccccc12)OC (centres unmarked) [Example 7] |  |
| 141 nM |  | CN(C)S(=O)(=O)NCCNC(=O)C(=O)C(Cc1ccccc1)NC(=O)c1cc(C#Cc2ccccc2)nc2ccccc12 (centres unmarked) [Example 94] |  |
|  |  | O=C(NCCNS(=O)(=O)c1ccc(-c2ccccn2)s1)C(=O)C(Cc1ccccc1)NC(=O)c1cc(C#Cc2ccccc2)nc2ccccc12 (centres unmarked) [Example 86] | IC50 (α-chymotrypsin): 475 nM; IC50 (cathepsin B): 1030 nM |
|  | 89% | O=C(NCCC1=CCCCC1)C(=O)C(Cc1ccccc1)NC(=O)c1cc(C#Cc2ccccc2)nc2ccccc12 (centres unmarked) [Example 6] |  |
|  |  | CCCC(NC(=O)c1cc(Cl)nc2ccccc12)C(=O)C(=O)NCCNS(=O)(=O)c1ccc(-c2ccccn2)s1 (centres unmarked) [Example 156] | IC50 ([1]; Table 5, head prints no unit): 43 nM |
|  |  | O=C(NCCNS(=O)(=O)c1ccccc1)C(=O)C(Cc1ccccc1)NC(=O)c1nc(-c2ccccc2)nc2ccccc12 (centres unmarked) [Example 153] | Calpain I IC50 ** (value in parentheses: % inhibition) ([1]; Table 5): 95% |

| IC50 ([1]; Tables 2-4, pH 7.5) | inhibition at 10 µM ([1]; Tables 2-4) | Structure (SMILES) | also measured |
| --- | --- | --- | --- |
|  | 98% | O=C(NCc1ccncc1)C(=O)C(Cc1ccccc1)NC(=O)c1cc(C#Cc2ccccc2)nc2ccccc12 (centres unmarked) [Example 47] |  |
| 230 nM |  | CCCCCCOCCOCCOCCNC(=O)C(=O)C(Cc1ccccc1)NC(=O)c1cc(C#Cc2ccccc2)nc2ccccc12 (centres unmarked) [Example 9] |  |
| 79 nM |  | O=C(NCc1ccccc1)C(=O)[C@H](Cc1ccccc1)NC(=O)c1cc(C#Cc2ccccc2)nc2ccccc12 [Example 36] |  |
| 227 nM |  | O=C(NCCCCc1ccccc1)C(=O)C(Cc1ccccc1)NC(=O)c1cc(C#Cc2ccccc2)nc2ccccc12 (centres unmarked) [Example 34] |  |
|  | 100% | CC(C)CC(NC(=O)c1cc(C#Cc2ccccc2)nc2ccccc12)C(=O)C(=O)NCCNC(=O)OCc1ccccc1 (centres unmarked) [Example 115] |  |
|  | 43% | CN(C)NC(=O)C(=O)C(Cc1ccccc1)NC(=O)c1cc(C#Cc2ccccc2)nc2ccccc12 (centres unmarked) [Example 110] |  |
|  | 94% | O=C(NCCNC(=O)C(=O)C(Cc1ccccc1)NC(=O)c1cc(C#Cc2ccccc2)nc2ccccc12)Nc1ccc(Br)cc1 (centres unmarked) [Example 61] |  |
| 42 nM |  | O=C(NCCNS(=O)(=O)C=Cc1ccccc1)C(=O)C(Cc1ccccc1)NC(=O)c1cc(C#Cc2ccccc2)nc2ccccc12 (centres unmarked) [Example 91] |  |
| 81 nM |  | O=C(NCCS(=O)(=O)Nc1ccccc1)C(=O)C(Cc1ccccc1)NC(=O)c1cc(Cl)nc2ccccc12 (centres unmarked) [Example 147] |  |
|  | 31% | CC(NC(=O)C(=O)C(Cc1ccccc1)NC(=O)c1cc(C#Cc2ccccc2)nc2ccccc12)c1cccc2ccccc12 (centres unmarked) [Example 26] |  |
| 210 nM |  | C=CCNC(=O)C(=O)C(Cc1ccccc1)NC(=O)c1cc(C#Cc2ccccc2)nc2ccccc12 (centres unmarked) [Example 3] |  |
| 184 nM |  | NS(=O)(=O)c1ccc(CNC(=O)C(=O)C(Cc2ccccc2)NC(=O)c2cc(C#Cc3ccccc3)nc3ccccc23)cc1 (centres unmarked) [Example 39] |  |
|  |  | CCCC(NC(=O)c1cc(Cl)nc2ccccc12)C(=O)C(=O)NCCNS(=O)(=O)c1ccc(Cl)c(Cl)c1 (centres unmarked) [Example 152] | IC50 ([1]; Table 5, head prints no unit): 325 nM |
| 85 nM |  | O=C(NCCNS(=O)(=O)c1ccc(-c2ccccn2)s1)C(=O)C(Cc1ccccc1)NC(=O)c1cc(-c2cccs2)nc2ccccc12 (centres unmarked) [Example 146] |  |
| 130 nM |  | O=C(NCCNS(=O)(=O)c1cccc2cccnc12)C(=O)C(Cc1ccccc1)NC(=O)c1cc(C#Cc2ccccc2)nc2ccccc12 (centres unmarked) [Example 89] |  |
| 510 nM |  | CC(NC(=O)C(=O)C(Cc1ccccc1)NC(=O)c1cc(C#Cc2ccccc2)nc2ccccc12)c1ccccc1 (centres unmarked) [Example 27] |  |
| 89 nM |  | O=C(NCCNS(=O)(=O)c1cccc2nsnc12)C(=O)C(Cc1ccccc1)NC(=O)c1cc(C#Cc2ccccc2)nc2ccccc12 (centres unmarked) [Example 71] |  |
|  | 98% | O=C(NCCCCCO)C(=O)C(Cc1ccccc1)NC(=O)c1cc(C#Cc2ccccc2)nc2ccccc12 (centres unmarked) [Example 14] |  |
|  | 95% | N#CCCNC(=O)C(=O)C(Cc1ccccc1)NC(=O)c1cc(C#Cc2ccccc2)nc2ccccc12 (centres unmarked) [Example 5] |  |
|  | 82% | CC(C)CC(NC(=O)c1cc(C#Cc2ccccc2)nc2ccccc12)C(=O)C(=O)NCCNS(=O)(=O)c1ccccc1 (centres unmarked) [Example 117] |  |
| 126 nM |  | O=C(NCCCNC(=O)C(=O)C(Cc1ccccc1)NC(=O)c1cc(C#Cc2ccccc2)nc2ccccc12)Nc1ccccc1 (centres unmarked) [Example 98] |  |
